The values below come from PubChem BioAssay AID1508591.

Where a SMILES comes first, the peptide text is derived from it. [ ]: non-standard residue; d: D form. ξ: configuration not given here. ξLac(3-iPr) = CC(C)CC(O)C(=O)O; NMeV = CN[CH](C(=O)O)C(C)C; NMeA = CN[CH](C)C(=O)O; βAla = NCCC(=O)O

The conditions of the series: rat; liver microsomes; pH 7.4; 15.0 min; 1.0 µM. (Liver microsomes are vesicles of endoplasmic reticulum, rich in cytochrome P450 enzymes.)
The term half-life denotes the time in which the quantity being followed falls by half. For the molecule `CCOc1ccc(CCNC(=O)c2cc3cnccc3n2Cc2cccc(C)n2)cc1OCC`, the half-life came out at 29 min. Turning to `O=C(CCCN1CCC(O)(c2cccc(C(F)(F)F)c2)CC1)c1ccc(F)cc1`, the half-life was found to be 20.5 min.

In turn, `Cc1cc(C)cc(C(=O)Nc2ccc3c(N4CCCC4)ncnc3c2)c1` gave a half-life of 8.23 min.

Consider `COc1ccc(C(=O)Nc2nc(-c3ccccc3)cs2)cc1NS(=O)(=O)c1ccc(C)cc1`, for which the half-life turned out to be 13 min. The figure for `C[S+](=O)([O-])c1ccc(-c2nc(C(=O)N3CCOCC3)n3ccncc23)cc1` is more than 30 min; for `COC(=O)CSc1nc(-c2ccccc2)cc(-c2ccco2)c1C#N` it is 1 min; for `Fc1cccc(-c2ccc(Nc3nc(-c4ccncc4)nc4ccccc34)cc2F)c1` it is more than 30 min.

`O=C1Nc2ccccc2/C1=C/c1cc(Cl)c(O)c(Cl)c1` showed a half-life of more than 30 min. As for `Cc1ccc2nc(-c3ccccn3)c(Nc3ccccc3C)n2c1`, the figure is 12.2 min; as for `CCC(C)C1NC(=O)C2CCCN2C(=O)C(CC(C)C)OC(=O)CCNC(=O)C(C)N(C)C(=O)C(C(C)C)N(C)C1=O` (stereo unspecified) (cyclo([ξLac(3-iPr)]PI[NMeV][NMeA][βAla]); configuration not given here), 18.1 min. As for `O=S(=O)(Nc1ccc(C2CCNCC2)cc1)c1ccc(NCc2cccc(Cl)c2O)cc1`, the figure is 20 min.

On to `Cc1ccnc(NC(=S)N2CCN(c3ncc(C(F)(F)F)cc3Cl)CC2)c1`, for which the half-life is more than 30 min.

Consider `Cc1ccc(S(=O)(=O)Nc2cccc(C(=O)Nc3nc(-c4ccccc4)cs3)c2Cl)cc1`, for which the half-life was found to be 15 min.

Molecule `O=C(NCCCc1ccccc1)c1cccc(-c2cc(O)c3ncccc3c2)c1` showed a half-life of 1.65 min. The figure for `O=C(Nc1cccnc1)c1cccs1` is more than 30 min; for `c1cc(-c2cc(-c3ccncc3)c3cncn3c2)c2[nH]ccc2c1` it is 7.16 min; for `CCOC(=O)[C@H]1O[C@H]1C(=O)N[C@@H](CC(C)C)C(=O)NCCC(C)C` it is 1.48 min.

Consider `Cn1c(C(=O)NCCc2ccccn2)nc2nc(-c3ccccc3)c(Cl)cc21`, for which the half-life came to 7.82 min. As for `Cc1nsc(N)c1C(=O)N(C)CCOc1ccccc1Cl`, the figure is 3.7 min; as for `COc1ccc2[nH]c3c(c2c1)CCNC31CCN(S(=O)(=O)c2c(C)noc2C)CC1`, more than 30 min; as for `COc1ccc(CNc2ccc(S(=O)(=O)Nc3nccs3)cc2)cc1O`, more than 30 min. For `CC(=O)Nc1ccc(-c2csc(N3CCC(C(N)=O)CC3)n2)cc1`, the half-life was more than 30 min.

Regarding `NC(=O)C1CCN(c2nc(-c3ccccc3C(F)(F)F)cs2)CC1`, the half-life turned out to be 5.58 min.

As to `CC(C)(C)OC(=O)N[C@@H](Cc1ccc(O[S+](=O)([O-])c2cccc3cnccc23)cc1)C(=O)N1CCN(Cc2ccccc2)CC1`, the half-life came out at 1.6 min. In the case of `CC(C)CNC(=O)c1cn2cc(-c3ccccc3)sc2n1`, the half-life is more than 30 min. Regarding `CN1CCCC1CCOC(c1cc2nccc(C(=O)O)c2[nH]1)c1ccccc1Cl` (stereo unspecified), the half-life is more than 30 min.

`O=c1cc(N2CCOCC2)oc2c1ccc1ccccc12`: the half-life is more than 30 min. The figure for `COc1cccc(CNc2ccc(S(=O)(=O)Nc3nccs3)cc2)c1OC` is 11 min; for `O=S(=O)(Nc1nc2n(n1)C(c1ccccc1)C=C(c1ccc(Cl)cc1)N2)c1ccccc1` (stereo unspecified) it is more than 30 min; for `CN(C)c1cccc(-c2cnc(Nc3cccnc3)c3c2CCO3)c1` it is 5.25 min.

For `CC1CCc2ccc(F)cc2N1S(=O)(=O)c1cccs1` (stereo unspecified), the half-life stood at 2.7 min.

In turn, `Cc1[nH]c2ccccc2c1CN1CCN(c2ccccn2)CC1` showed a half-life of 1.7 min. As for `CC(=O)Nc1ncc(S(=O)(=O)N2CCOCC2)s1`, the figure is more than 30 min; as for `CCOc1ccc(CCNC(=O)c2cc3ccccc3n2Cc2cccc(C)n2)cc1OCC`, 1.6 min.

With `Cc1ccc(-n2nc3c(=O)n(CCCC(=O)NCc4ccc(F)cc4)nc(C)c3c2C)cc1`, the half-life is 2.77 min. As for `CC(C)c1nc2oc3c(NCCN(C)C)ncnc3c2c2c1COC(C)(C)C2`, the figure is more than 30 min; as for `COc1ccccc1Nc1ccnc(N2CCN(C(=O)c3ccccc3Cl)CC2)n1`, 7.9 min. As for `Cc1ccc(C(=O)[C@H]2CC[C@@H](C(=O)Nc3ccc(S(=O)(=O)Nc4nccs4)cc3)C2)cc1C`, the figure is 2.5 min; as for `Cc1noc(C)c1[S+](=O)([O-])N1CCC2(CC1)CC(c1cccc(C(F)(F)F)c1)=NO2`, 24.8 min; as for `N[C@@H](CSCc1ccccc1)C(=O)O`, more than 30 min.

`CN1CCN(C(=O)c2ccc3cc(CCNc4ncnc5ccc(C#N)cc45)ccc3c2)CC1`: the half-life was 8.11 min. As for `Cc1cc(-c2nnc3n2CCCCC3)c(C)n1-c1ccc(C(C)(C)C)cc1`, the figure is 1.9 min; as for `CS(=O)(=O)c1ccccc1-c1csc(N2CCC(C(N)=O)CC2)n1`, more than 30 min. The figure for `O=C(Nc1ccccc1C(=O)Nc1ccccc1C(=O)NCc1ccco1)c1ccco1` is 11 min; for `c1ccc2c(Nc3ccc4nc[nH]c4c3)nc(-c3ccncc3)nc2c1` it is 16 min. As for `NC(=O)C1CCN(c2nc(-c3cccc(Br)c3)cs2)CC1`, the figure is 1.77 min; as for `CC(C)n1cc(-c2ccc3c(c2)N(C)CC3)c2c(NS(=O)(=O)c3ccn(C)n3)ccnc21`, 1.07 min. Regarding `Cc1ccc(S(=O)(=O)Nc2ccc(Br)cc2C(=O)Nc2nc(-c3ccccc3)cs2)cc1`, the half-life is 8.9 min. The figure for `CCOC(=O)c1ccnc(CNCC(=O)N(CC)CCN(C)C)c1` is more than 30 min; for `CCCCC1CCC(C(=O)Nc2ccc(S(=O)(=O)Nc3nccs3)cc2)CC1` (stereo unspecified) it is more than 30 min; for `CC(=O)Nc1ccc(OCc2cn(CC(=O)c3ccc(O)cc3)nn2)cc1` it is more than 30 min.

`Cc1cccc(-n2cnc3cc(C(=O)N4CCCC(C)C4)ccc32)c1` (stereo unspecified) displayed a half-life of 2.5 min. `Cc1cc(CNC(=O)c2ccc3c(c2)n(CC2CC2)c(=O)n3C2CCCCC2)on1` displayed a half-life of 12.4 min. The figure for `COc1ccc(NS(=O)(=O)c2ccc(C)cc2)cc1C(=O)Nc1nc(-c2ccccc2)cs1` is 12 min. The figure for `CN1CCCN(C(c2ccccc2)c2ccc(Cl)cc2)CC1` (stereo unspecified) is 2.89 min; for `COc1ccc(-n2c(C)cc(C3=NNC(=NC4CC4)SC3)c2C)cc1` it is 11.8 min; for `N=c1c2c(ncn1-c1ccccc1)Oc1ccc3ccccc3c1C2c1ccc2c(c1)CCO2` (stereo unspecified) it is 10.1 min. The figure for `COc1ccc(CN2C(=O)[C@@H]3C[C@@H](CN3Cc3cccs3)Oc3ccccc32)cc1` is 1.2 min; for `CCOc1ccc(CN2C(=O)c3ccccc3Sc3ccc(C(=O)NC4CCC(C)CC4)cc32)cc1` (stereo unspecified) it is 3.52 min.

`COCCNC(=O)c1ccc(-c2ccc(N3CCCCC3)nc2)cc1` had a half-life of 3.26 min. Consider `CCCCCn1c(=O)[nH]c2cc(C(=O)NCCCN3CCC(C)CC3)ccc2c1=O`, for which the half-life was determined as 16 min. As for `Cc1ccc(-c2cc(C(=O)Nc3ncco3)c3ccccc3n2)cc1C`, the figure is 5.7 min; as for `Cc1cc(NS(=O)(=O)c2ccc3c(c2)CCC(=O)N3)ccc1F`, 11.6 min; as for `N#Cc1ccc(-c2csc(N3CCC(C(N)=O)CC3)n2)cc1`, 16.2 min. As for `CS(=O)(=O)N1CCN(c2nc(-c3ccc(Br)cc3)cs2)CC1`, the figure is more than 30 min. As for `O=C(NCc1ccccc1)c1nc(S(=O)(=O)Cc2ccc(F)cc2)ncc1Cl`, the figure is 1.98 min. `CCOc1ccc(-c2csc(N3CCC(C(N)=O)CC3)n2)cc1` displayed a half-life of 9.24 min. In turn, `COc1ccc(Cn2c(CCC(=O)Nc3cc(C)cc(C)c3)nc3cccnc32)cc1` returned a half-life of 1.47 min. The figure for `Cc1ccc(CNCc2cn[nH]c2-c2ccc(C)cc2)cc1` is 1.34 min; for `Oc1ccc(CNc2cccnc2)c2cccnc12` it is 3.56 min. As for `COc1cccc(CC(=O)Nc2nc(-c3ccc4c(c3)CCN4C(=O)c3ccccc3C)c(C)s2)c1`, the figure is 19 min; as for `Cc1ccc2cccc(NC(=O)c3ccc(OC(C)C)cc3)c2n1`, 17.9 min. Turning to `O=C(CCc1ccccc1)Nc1ccc(S(=O)(=O)Nc2nccs2)cc1`, the half-life was more than 30 min. The figure for `O=C(COc1ccccc1)NCC(c1cccs1)S(=O)(=O)c1ccc(Cl)cc1` (stereo unspecified) is 1.44 min; for `Cc1cnc(-c2ccccc2C(C)C)nc1NCc1ccc(-n2ccnn2)cc1` it is 10.3 min; for `FC1(F)CCN(c2nc(-c3ccncc3)nc3ccccc23)CC1` it is 9.4 min. The molecule `Nc1nc(N)c2cc(Sc3ccc4ccccc4c3)ccc2n1` had a half-life of more than 30 min.

In the case of `Cc1ccc(S(=O)(=O)NCC(=O)Nc2nc(-c3ccccc3)cs2)cc1`, the half-life was 2.1 min. As for `Clc1ccc2ncc(-c3cccc(NC4CNC4)n3)n2c1`, the figure is 13.6 min.

`COc1ccc(-c2ccc(C(=O)NC3CC(c4cc(=O)[nH]c(N)n4)C3)o2)cc1` (stereo unspecified) displayed a half-life of more than 30 min. As for `C=C1C(=O)O[C@H]2[C@@H]1CCC(C)=CCC[C@@]1(C)O[C@@H]21`, the figure is 16.7 min; as for `CC(C)c1cc(C(C)C)c(CC(=O)NS(=O)(=O)Oc2c(C(C)C)cccc2C(C)C)c(C(C)C)c1`, 28.2 min. As for `CC(C)CN(CC(=O)N(CCCN1CCCC1=O)CC(N)=O)C(=O)CNCCc1ccccc1F`, the figure is more than 30 min; as for `CCOc1ccc(CCNC(=O)c2cc3ccccc3n2CCN2CCOCC2)cc1OCC`, 1.6 min. In turn, `CCOC(=O)C1CCN(C(=O)Nc2ccc3c(c2)nc(C)n3C)CC1` returned a half-life of 1 min.

As for `Cc1ccccc1C(=O)N1CCc2cc(-c3nc(NC(=O)Cc4ccc5c(c4)OCCO5)sc3C)ccc21`, the half-life came to 22 min. Regarding `COc1ccc(C2=Nc3ccc(Br)cc3C(c3ccccc3)N2CC(=O)NN)cc1` (stereo unspecified), the half-life came to 8.16 min. As for `COc1c2c(c3c(c1CCC(=O)O)OC(C)(C)C=C3)OC(C)(C)C=C2`, the figure is more than 30 min; as for `O=C(C1CCN(c2nc(-c3ccc(Br)cc3)cs2)CC1)N1CCNCC1`, more than 30 min. In the case of `CCc1ccc(C2C(C(=O)Nc3ccccc3OC)=C(C)Nc3c(C(=O)Nc4ccc(C)cc4)cnn32)cc1` (stereo unspecified), the half-life came to 2.75 min.

`COc1ccc2[nH]cc(CCNC(=O)c3cnn(-c4ccc(C)cc4)c3C3CCN(C(=O)OC(C)(C)C)CC3)c2c1` gave a half-life of 1.65 min.
